Experimental data from BindingDB's records for doi:10.1016/S0960-894X(00)80623-X (1992).
pIC50: −log10 of the molar value.

Target: HMG-CoA reductase (Bos taurus)
Assay: Compound was evaluated for inhibitory activity against HMG-CoA reductase in bovine ocular cell preparation

pIC50: 5.52
SMILES: Cn1nnnc1C(/C=C/[C@@H](O)C[C@@H](O)CC(=O)O)=C(c1ccc(F)cc1)c1ccc(F)cc1
